The values that follow come from patent US10647677B2, “Analogues of hydroxychloroquine (HCQ) without retinal toxicity” (Inoviem Scientific, priority 2015, dated 2020).

As a reminder, the Kd is the free concentration of one partner at which half of the binding sites on the other are occupied at equilibrium, for simple one-to-one binding.

Experiment [1] has as its system C57Bl/6 mice, pulmonary vasculitis induced by immune complexes. The experiment is described as follows: Pulmonary vasculitis induced by immune complexes: histological analysis of lung sections. In kind it is in vivo. As to conditions: per os before induction; HCQ 10 mg/kg, CB137 10, 30 or 100 mg/kg (FIG. 6). On the procedure: Female C57Bl/6 strain mice from the Jackson Laboratory, 8-10 weeks old and weighing about 20 g, are used in all experiments. The mice are maintained at a temperature of 23° C.±1° C. with 12-hour light/dark cycle. Mice have access to water and food ad libitum and are housed at least one week before the beginning of any experiments.
A retro-orbital blood sampling was performed using capillaries containing heparin on mice anesthetized with isoflurane the day before the manipulation. The next day, the mice were anesthetized with a mixture of ketamine and xylasin (90 mg/kg and 125 mg/kg, respectively). The immune IgG complex is induced in the lungs by intratracheal instillation of 0.5 mg of anti-BSA rabbit antibody (MP Biomedicals, Strasbourg, France) and by the administration of 0.5 mg per mouse of BSA antigen in the caudal vein (Warner et al., 2001 and Warren et al., 1989). The specified treatment (PF-1355, CB137 or solvent alone) is administered enterally. The animals are euthanized 4 hours after intratracheal instillation. […]
The lung sections are examined under a light microscope (Axio LabA1 by Zeiss brand) to assess the intensity of the neutrophil influx and the level of hemorrhage, and to identify the structural alterations. A minimum of 10 fields at 400× magnification is analyzed per animal. […]

The subject of experiment [2] is MRL/Ipr mice (lupus model). The experiment is described as follows: Survival of MRL/Ipr mice (lupus model). In kind it is in vivo. As to conditions: 10 mg/kg IP, compared with HCQ at the same dose (FIG. 1). As to the method:
(§1) The MRL/MPJ-Fas (Ipr) (MRL-Ipr) and C57Bl/6 mice for the behavioral experiments are from the Jackson Laboratory and are randomly distributed into 5 groups. All animals were kept at controlled temperature (23° C.+/−1° C.) with a 12-hour day/night cycle, water and ad libitum food.
(§2) Mice received the specified dose of hydroxychloroquine (Tokyo Chemical Industry), CB137 or carrier intraperitoneally (IP), every 24 hours and for 5 days over a 10-week period. With regard to the MRL/Ipr mice, treatment started at 7 weeks of age, and ended at 23 weeks of age where a significant proportion of untreated mice died. With regard to the C57B1/6 mice, the same treatment program was carried out and the mice were sacrificed after […]. HCQ and CB137 were each freshly prepared in physiological saline and injected into the mice in a final volume of 50 μL. The MRL/Ipr mice were examined daily for skin lesions. For histological analysis, the animals were sacrificed and the tissues were rapidly dissected and immediately post-fixed.

Experiment [3] has as its system MRL/Ipr mice (lupus model). The experiment is described as follows: Development of the disease: dermatitis in MRL/Ipr mice. In kind it is in vivo. As to conditions: 10 mg/kg, compared to carrier and HCQ 10 mg/kg (FIG. 2). As to the method: as §1, §2
Dermatitis was less common in mice treated with CB137 10 mg/kg compared to control (carrier) mice and HCQ treated mice (10 mg/kg (FIG. 2).

Experiment [4] addresses T1, αB-crystalline (αB-C) (Homo sapiens, UniProt P02511).
T1 construct: purchased
T1 sequence (P02511 1-175): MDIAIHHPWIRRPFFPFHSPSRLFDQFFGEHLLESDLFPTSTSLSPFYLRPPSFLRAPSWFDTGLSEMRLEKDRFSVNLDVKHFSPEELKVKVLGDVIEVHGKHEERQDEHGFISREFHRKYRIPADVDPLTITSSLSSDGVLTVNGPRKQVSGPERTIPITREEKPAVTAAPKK
The experiment is described as follows: Surface plasmon resonance (Biacore 3000) affinity on αB-crystalline. In kind it is binding. As to conditions: SPR at 25° C., read-out: Kd (M) on crystallin. As to the method:
Using the surface plasmon resonance technology (Biacore 3000), the interaction constants between HCQ analogues (HCQa) and myeloperoxidase (MPO) targets and αB-crystalline (αB-C) were measured at 25° C. according to 12 different series of experiments. First, HCQ analogues at five different concentrations (10^−6 to 10^−8 M) were injected at a rate of 10^−6 L/min for 250 s on the MPO and αB-C targets as well as on the ERK1 and ERK2 controls, followed by a dissociation phase of 150 s.
The kinetic parameters were measured using the BIAevaluation 4.1 software. The set of resonance unit values obtained with the controls were subtracted from those obtained with MPO and αB-C to compensate for non-specific bonds.
The differences in Kd values for the myeloperoxidase (MPO) and αB-crystalline (αB-C) enzymes in Tables 1 and 2 are due to the variability of commercial batches. Nevertheless, the difference between the Kd of the compounds HCQ and CB137 remains identical according to these two tests.
Analysis of the compounds in the form of sulphate salts according to the method described above: […]

The mark [5] stands for this setting: Table 2, compounds in the form of sulphate salts.

Entries after “also recorded” stand apart in the source; their conditions may differ. Read-outs that look alike come from different tables or passages of the source.

Consider `CCN(CCO)CCCC(C)Nc1c(Cl)cnc2cc(Cl)ccc12` (centres unmarked) [CB137], for which, in experiment [1], the “inhibition of pulmonary vasculitis / pulmonary inflammation induced by immune complexes (lung sections)” value is given as “inhibiting pulmonary vasculitis; also recorded: limits pulmonary inflammation”. Also, the survival rate entry in experiment [2] was “significantly higher survival rate”. In addition, the “dermatitis (rate of mice having dermatitis)” value in experiment [3] is reported as “less common”. The dissociation constant (Kd) was determined as 1.75e-07 M in experiment [4] (Table 1) and 3e-05 M in experiment [4] (setting [5]).

On to `CCN(CCO)CCCC(C)Nc1ccnc2cc(Cl)ccc12` (centres unmarked) [Commercial HCQ, hydroxychloroquine], for which the “inhibition of pulmonary vasculitis / pulmonary inflammation induced by immune complexes (lung sections)” value in experiment [1] is recorded as “inhibiting pulmonary vasculitis”. Further, the values for the dissociation constant Kd in experiment [4] (Table 1) and in experiment [4] (setting [5]) were 2.2e-08 M and 1e-06 M, respectively.
